# Like-named read-outs stand apart in the source and are kept apart here.
# Columns and labels:
# Sprague-Dawley rats = experiment: Ventricular arrhythmias during coronary artery ligation period; assay type: in vivo, rat; design: EBs, mean value of indices + SEM / VT, mean value of indices + SEM / VF, mean value of indices + SEM: scale not given here
# Description: Ventricular arrhythmias after coronary artery ligation in the acute phase or during the period of re-circulation
# Sprague-Dawley rats were subjected to ligation of the left coronary artery according to the method of Clark et al. in J. Pharmacol. Methods 3, 357-368, 1980. The drugs were administered by gastric tube 30 minutes before the ligation. By means of a continuous electrocardiographic recording, the ventricular arrhythmias such as ectopic beats (EB), ventricular tachycardia (VT), ventricular fibrillation (VF) for 30 minutes after ligation, were recorded.
# [1] = Acute toxicity in the mouse; details: in vivo
# Source text: (§1) The acute toxicity of YS 201 given by intraveous route, similar in the males and in the females in the rat as well as in the mouse, is as follows:
# (§2) The acute toxicity of YS 201 given by oral route, similar in the males and in the females in the rat as well as in the mouse, is as follows: […]
# post-oligoemic rats = experiment: Transient cerebral oligoemia in the rat, cerebral water, K+ and Ca++ content; assay type: in vivo
# Description: Transient cerebral oligoemia in the rat
# The method described by Borzeix in Circulation et Metabolisme du Cerveau 1, 63-79, John Libbey Eurotext Publ. […] The animals were treated by the oral route with the tested drugs twice a day, starting one hour after the ligation and for 3 days, in scalar doses.
# The last dose, at the 71th hour after the occlusion, preceeded by one hour the sacrifice of the animal, whose brain was subjected to the determination of the H2 O, K^+ and Ca^++ content.
# [2] = Acute toxicity in the rat; details: in vivo
# Source text: as §1, §2
# [3] = Pharmacokinetics and bioavailability in dogs; assay type: in vivo; details: dog; for half-life: hydrochloride
# Description: YS 201 hydrochloride was intravenously and orally administered to dogs at 1 and 10 mg/kg respectively.
# SHR-SP = experiment: Effect on blood pressure in 6 month old SHR-SP (intraduodenal); assay type: in vivo, rat; design: DBP (dyastolic blood pressure) / MBP (mean blood pressure) / SBP (systolic blood pressure) / S-D (difference between systolic and diastolic blood pressure): unit not given here; details: 15 mg/kg intraduodenal
# Source text: (§3) Comparative effect of YS 201 on 3 month old rats and 6 month old SHR-SP
# normotensive rats = experiment: Effect on blood pressure in normotensive rats (intraduodenal); assay type: in vivo, rat; details: 15 mg/kg intraduodenal; for HR (heart rate): in beats/min (unit assumed)
# Description: as §3
# YS 201 was given by intraduodenal route at 15 mg/kg in normotensive rats.
structure (smiles),measurement,setting,value
"CCOC(=O)C1=C(C)NC(C)=C(C(=O)OCCN2CCCCC2)C1c1cccc([N+](=O)[O-])c1 (stereo not drawn) [YS 201, ethyl-(β-piperidinoethyl)-2,6-dimethyl-4-(3-nitrophenyl)-1,4-dihydropyridine-3,5-dicarboxylate]",Death rate %,Sprague-Dawley rats; 0.75 mg/kg p.o.,20%
same,"EBs, mean value of indices + SEM",Sprague-Dawley rats; 0.75 mg/kg p.o.,42.1 ± 9.70
same,VF %,Sprague-Dawley rats; 0.75 mg/kg p.o.,60%
same,"VF, mean value of indices + SEM",Sprague-Dawley rats; 0.75 mg/kg p.o.,3.8 ± 1.77
same,"VT, mean value of indices + SEM",Sprague-Dawley rats; 0.75 mg/kg p.o.,1.3 ± 0.68
same,Death rate %,Sprague-Dawley rats; 1.5 mg/kg p.o.,0%
same,"EBs, mean value of indices + SEM",Sprague-Dawley rats; 1.5 mg/kg p.o.,45.7 ± 6.18
same,VF %,Sprague-Dawley rats; 1.5 mg/kg p.o.,20%
same,"VF, mean value of indices + SEM",Sprague-Dawley rats; 1.5 mg/kg p.o.,0.5 ± 0.49
same,"VT, mean value of indices + SEM",Sprague-Dawley rats; 1.5 mg/kg p.o.,1.9 ± 0.32
same,Death rate %,Sprague-Dawley rats; 3.0 mg/kg p.o.,80%
same,"EBs, mean value of indices + SEM",Sprague-Dawley rats; 3.0 mg/kg p.o.,36.0 ± 9.11
same,VF %,Sprague-Dawley rats; 3.0 mg/kg p.o.,100%
same,"VF, mean value of indices + SEM",Sprague-Dawley rats; 3.0 mg/kg p.o.,4.8 ± 1.41
same,"VT, mean value of indices + SEM",Sprague-Dawley rats; 3.0 mg/kg p.o.,1.6 ± 0.77
same,reduction of the index attributed to EBs and VT,Sprague-Dawley rats; whatever the dosage,~2 fold
same,LD50,[1]; iv,12.3 mg/kg
same,LD50,[1]; po,283 mg/kg
same,Cerebral content of H2O,post-oligoemic rats; 0.25 mg/kg p.o.,79.2 ± 0.57%
same,Cerebral content of Ca++,post-oligoemic rats; 0.5 mg/kg p.o.,11.7 ± 3.00 mmol · kg^-1 dry weig
same,Cerebral content of H2O,post-oligoemic rats; 0.5 mg/kg p.o.,78.3 ± 0.39%
same,Cerebral content of Ca++,post-oligoemic rats; 1 mg/kg p.o.,11.7 ± 5.53 mmol · kg^-1 dry weig
same,Cerebral content of H2O,post-oligoemic rats; 1 mg/kg p.o.,77.8 ± 0.47%
same,Cerebral content of Ca++,post-oligoemic rats; 3 mg/kg p.o.,12.6 ± 3.89 mmol · kg^-1 dry weig
same,Cerebral content of H2O,post-oligoemic rats; 3 mg/kg p.o.,78.8 ± 0.44%
same,LD50,[2]; iv,12.5 mg/kg
same,LD50,[2]; po,402 mg/kg
same,decline in concentration,[3]; 1 mg/kg intravenous,typically biexponential
same,bioavailability,"[3]; in vivo, 10 mg/kg, oral, read-out: average apparent bioavailable fraction",19.4%
same,half-life,"[3]; in vivo, 1 mg/kg intravenous, read-out: mean half-life of elimination",1.47 h
same,half-life,"[3]; in vivo, 10 mg/kg oral, read-out: mean apparent half-life of elimination",2.47 h
same,AUC,"[3]; in vivo, oral, 10 mg/kg, read-out: average AUC (converted)",1080 ng·h/mL
same,Cmax,"[3]; in vivo, oral, 10 mg/kg, read-out: maximum concentration (Cmax)",284 ng/mL
same,duration of blood pressure effect,SHR-SP,4 h
same,DBP (dyastolic blood pressure),SHR-SP; 0 min (baseline),17.5
same,HR (heart rate),SHR-SP; 0 min (baseline),360 beats/min
same,MBP (mean blood pressure),SHR-SP; 0 min (baseline),20.0
same,S-D (difference between systolic and diastolic blood pressure),SHR-SP; 0 min (baseline),7.5
same,SBP (systolic blood pressure),SHR-SP; 0 min (baseline),25.0
same,DBP (dyastolic blood pressure),SHR-SP; +1 min,17.0
same,HR (heart rate),SHR-SP; +1 min,360 beats/min
same,MBP (mean blood pressure),SHR-SP; +1 min,19.3
same,S-D (difference between systolic and diastolic blood pressure),SHR-SP; +1 min,7.0
same,SBP (systolic blood pressure),SHR-SP; +1 min,24.0
same,DBP (dyastolic blood pressure),SHR-SP; +2 min,15.0
same,HR (heart rate),SHR-SP; +2 min,360 beats/min
same,MBP (mean blood pressure),SHR-SP; +2 min,17.5
same,S-D (difference between systolic and diastolic blood pressure),SHR-SP; +2 min,7.5
same,SBP (systolic blood pressure),SHR-SP; +2 min,22.5
same,DBP (dyastolic blood pressure),SHR-SP; +5 min,16.0
same,HR (heart rate),SHR-SP; +5 min,360 beats/min
same,MBP (mean blood pressure),SHR-SP; +5 min,18.7
same,S-D (difference between systolic and diastolic blood pressure),SHR-SP; +5 min,8.0
same,SBP (systolic blood pressure),SHR-SP; +5 min,24.0
same,DBP (dyastolic blood pressure),SHR-SP; +10 min,13.5
same,HR (heart rate),SHR-SP; +10 min,360 beats/min
same,MBP (mean blood pressure),SHR-SP; +10 min,16.2
same,S-D (difference between systolic and diastolic blood pressure),SHR-SP; +10 min,8.0
same,SBP (systolic blood pressure),SHR-SP; +10 min,21.5
same,DBP (dyastolic blood pressure),SHR-SP; +15 min,13.0
same,HR (heart rate),SHR-SP; +15 min,360 beats/min
same,MBP (mean blood pressure),SHR-SP; +15 min,15.7
same,S-D (difference between systolic and diastolic blood pressure),SHR-SP; +15 min,8.0
same,SBP (systolic blood pressure),SHR-SP; +15 min,21.0
same,DBP (dyastolic blood pressure),SHR-SP; +30 min,11.0
same,HR (heart rate),SHR-SP; +30 min,340 beats/min
same,MBP (mean blood pressure),SHR-SP; +30 min,13.7
same,S-D (difference between systolic and diastolic blood pressure),SHR-SP; +30 min,8.0
same,SBP (systolic blood pressure),SHR-SP; +30 min,19.0
same,DBP (dyastolic blood pressure),SHR-SP; +60 min,10.0
same,HR (heart rate),SHR-SP; +60 min,300 beats/min
same,MBP (mean blood pressure),SHR-SP; +60 min,12.0
same,S-D (difference between systolic and diastolic blood pressure),SHR-SP; +60 min,7.0
same,SBP (systolic blood pressure),SHR-SP; +60 min,17.0
same,DBP (dyastolic blood pressure),SHR-SP; +120 min,11.5
same,HR (heart rate),SHR-SP; +120 min,360 beats/min
same,MBP (mean blood pressure),SHR-SP; +120 min,13.5
same,S-D (difference between systolic and diastolic blood pressure),SHR-SP; +120 min,6.0
same,SBP (systolic blood pressure),SHR-SP; +120 min,17.5
same,DBP (dyastolic blood pressure),SHR-SP; +180 min,8.0
same,HR (heart rate),SHR-SP; +180 min,400 beats/min
same,MBP (mean blood pressure),SHR-SP; +180 min,9.8
same,S-D (difference between systolic and diastolic blood pressure),SHR-SP; +180 min,5.5
same,SBP (systolic blood pressure),SHR-SP; +180 min,13.5
same,DBP (dyastolic blood pressure),SHR-SP; +240 min,6.0
same,HR (heart rate),SHR-SP; +240 min,420 beats/min
same,MBP (mean blood pressure),SHR-SP; +240 min,7.5
same,S-D (difference between systolic and diastolic blood pressure),SHR-SP; +240 min,4.5
same,SBP (systolic blood pressure),SHR-SP; +240 min,10.5
same,DBP (diastolic blood pressure),normotensive rats; 1 min,13.0 ± 0.74
same,MBP (mean blood pressure),normotensive rats; 1 min,14.8 ± 0.64
same,SBP (systolic blood pressure),normotensive rats; 1 min,18.4 ± 0.48
same,HR (heart rate),normotensive rats; 1 min,556 ± 9.8
same,DBP (diastolic blood pressure),normotensive rats; 2 min,12.0 ± 0.35
same,MBP (mean blood pressure),normotensive rats; 2 min,13.9 ± 0.28
same,SBP (systolic blood pressure),normotensive rats; 2 min,17.8 ± 0.26
same,HR (heart rate),normotensive rats; 2 min,556 ± 7.5
same,DBP (diastolic blood pressure),normotensive rats; 5 min,10.4 ± 0.33
same,MBP (mean blood pressure),normotensive rats; 5 min,12.7 ± 0.19
same,SBP (systolic blood pressure),normotensive rats; 5 min,17.2 ± 0.26
same,HR (heart rate),normotensive rats; 5 min,564 ± 7.5
same,reduction of diastolic blood pressure (DBP),normotensive rats; 5 min after administration,3.1 KPA
same,DBP (diastolic blood pressure),normotensive rats; 10 min,9.4 ± 0.19
same,MBP (mean blood pressure),normotensive rats; 10 min,11.6 ± 0.15
same,SBP (systolic blood pressure),normotensive rats; 10 min,15.9 ± 0.19
same,HR (heart rate),normotensive rats; 10 min,536 ± 7.5
same,DBP (diastolic blood pressure),normotensive rats; 15 min,9.8 ± 0.34
same,MBP (mean blood pressure),normotensive rats; 15 min,11.7 ± 0.28
same,SBP (systolic blood pressure),normotensive rats; 15 min,15.6 ± 0.29
same,HR (heart rate),normotensive rats; 15 min,524 ± 11.7
same,DBP (diastolic blood pressure),normotensive rats; 30 min,11.3 ± 0.62
same,MBP (mean blood pressure),normotensive rats; 30 min,12.9 ± 0.51
same,SBP (systolic blood pressure),normotensive rats; 30 min,16.0 ± 0.35
same,HR (heart rate),normotensive rats; 30 min,496 ± 22.3
same,DBP (diastolic blood pressure),normotensive rats; 60 min,12.4 ± 0.40
same,MBP (mean blood pressure),normotensive rats; 60 min,14.0 ± 0.35
same,SBP (systolic blood pressure),normotensive rats; 60 min,17.3 ± 0.26
same,HR (heart rate),normotensive rats; 60 min,428 ± 24.2
same,DBP (diastolic blood pressure),normotensive rats; 120 min,13.7 ± 0.87
same,MBP (mean blood pressure),normotensive rats; 120 min,15.3 ± 0.90
same,SBP (systolic blood pressure),normotensive rats; 120 min,18.5 ± 1.06
same,DBP (diastolic blood pressure),normotensive rats; TO (baseline),13.5 ± 0.55
same,MBP (mean blood pressure),normotensive rats; TO (baseline),13.2 ± 0.50
same,SBP (systolic blood pressure),normotensive rats; TO (baseline),18.5 ± 0.47
same,HR (heart rate),normotensive rats; TO (baseline),432 ± 28.7

# Reference: patent US4826856A, “Calcium antagonistic dihydropyridine derivative” (Yason s.r.l., priority 1985, dated 1989)
